In patent US9265707B2, “Cosmetic composition comprising coumestrol or a bean extract containing coumestrol for skin care” (AMOREPACIFIC CORPORATION, priority 2010, dated 2016):

How the values were obtained:
[1] = tested on: UVB-induced reactive oxygen species (ROS) in keratinocytes; assay: Scavenging of UVB-induced reactive oxygen species (DCFH-DA fluorescence); assay type: cell-based; conditions: UVB 30 mJ/cm^2, relative to UV-treated control
Excerpt: 2′,7′-Dichlorodihydrofluorescein diacetate (DCFH-DA; Molecular Probes, Inc., OR, USA) was used to evaluate the coumestrol's effect of scavenging UVB-induced ROS. DCFH-DA is an fat-soluble substance well known as a detector of ROS in cells. It is easily absorbed by cells and turned into water-soluble 2′,7′-dichlorodihydrofluorescein as a result of hydrolysis of the acetate group by esterase in the cells. Since it is turned to 2′,7′-dichlorofluorescein (DCF) which emits fluorescence after reaction with intracellular oxidizing agents, the quantity of intracellular ROS can be evaluated by measuring the intensity of fluorescence from cells treated with DCFH-DA.
Keratinocytes (acquired from Dr. Fusenig at German Cancer Research Center) were seeded onto a 96-well black plate (Greiner BioOne Inc., NC, USA) for fluorescence measurement at a density of 1×10^4 cells per well and cultured for 24 hours. Then, the cells were treated with coumestrol diluted in fresh FBS-free medium to a final concentration of 0.01, 0.1 or 1 μM. After addition of the test substance, the cells were cultured for 24 hours. After removing the remaining medium by washing with HEPES-buffered control salt solution (HCSS), 20 μM DCFH-DA in 100 μL of HCSS was added. […] Then, after adding 100 μL of HCSS, the cells were irradiated with UVB of 30 mJ/cm^2 to induce production of ROS. […] The fluorescence intensity of DCF was measured with the Wallac VICTOR2 fluorometer (Wallac, Turku, Finland) at excitation wavelength of 485 nm and emission wavelength of 530 nm. ROS scavenging effect (%) relative to the control group was calculated from the measured fluorescence intensity.

MMP-1 = assay: Inhibition of UV-induced MMP-1 expression (ELISA); assay type: cell-based; conditions: Fibroblast, light or radiation study, human fibroblasts, UVB 15 mJ/cm^2, 48 hours, untreated control 100, UV-treated control 132, read-out: MMP1 activity (%)
Method: Human fibroblasts (CAS-C-004-5C, Invitrogen, CA, USA) were used to evaluate the coumestrol's effect of inhibiting UV-induced MMP-1 expression. The cells were seeded onto a 24-well plate at a density of 1×10^4 cells per well and cultured for about 24 hours in a medium containing 10% FBS until ˜about 80% confluency. After replacing the medium with an FBS-free medium, the cells were cultured for 24 hours. After washing once with PBS and adding 100 μL of PBS, the cells were irradiated with UVB of 15 mJ/cm^2. After removing the PBS, the cells were treated with coumestrol diluted to a final concentration of 0.01, 0.1 or 1 μM in a fresh FBS-free medium. Expression of MMP-1 was evaluated 48 hours after the treatment with the test substance. The expression of MMP-1 was evaluated using an enzyme-linked immunosorbent assay (ELISA) kit (RPN 2610; Biotrak Amersham Pharmacia Biotech, UK) after collecting a supernatant from the cell culture. The quantity of MMP-1 was determined from the total protein quantity.

type I pN collagen = assay: Type I pN collagen synthesis (PIP EIA kit); assay type: cell-based; conditions: human fibroblasts, 48 hours, untreated control 100
Method: Human fibroblasts (CAS-C-004-5C, Invitrogen, CA, USA) were used to evaluate the coumestrol's effect on type I pN collagen synthesis. The cells were seeded onto a 24-well plate at a density of 1×10^4 cells per well and cultured for about 24 hours in a medium containing 10% FBS until ˜about 80% confluency. The cells were treated with coumestrol diluted to a final concentration of 0.01, 0.1 or 1 μM in a fresh FBS-free medium. The synthesized quantity of type I pN collagen was measured using a procollagen type I C-peptide (PIP) EIA kit (MK101; Takara Shuzo, Kyoto, Japan) by collecting a supernatant from the cell culture 48 hours after the treatment with the test substance. The quantity of type I pN collagen was determined from the total protein quantity.

[2] = tested on: advanced glycation end product (AGE) in human fibroblasts; assay: Inhibition of glycation of skin cells (AGE ELISA); assay type: cell-based; conditions: 2.5 μM, UVB 50 mJ/cm^2, 24 hours, untreated control 0.156
Method: (§1) Human fibroblasts (CAS-C-004-5C, Invitrogen, CA, USA) were used to evaluate the coumestrol's effect of inhibiting glycation of skin cells. The cells were seeded onto a 6-well plate at a density of 5×10^4 cells per well and cultured for about 24 hours in a medium containing 10% FBS until ˜about 80% confluency. After washing once with PBS and adding 100 μL of PBS, the cells were irradiated with UVB of 50 mJ/cm^2. After removing the PBS, the cells were treated with coumestrol diluted to a final concentration of 2.5 μM in a fresh FBS-free medium. Glycation of skin cells was evaluated using the Oxiselect™ advanced glycation end product (AGE) ELISA kit 24 hours after the treatment with the test substance.

[3] = tested on: ATP production in human fibroblasts; assay: ATP production in cells (ATP determination kit); assay type: cell-based; conditions: 2.5 μM; human fibroblasts treated as in Test Example 4; untreated control 803
Method: as §1
Following treatment of human fibroblasts (CAS-C-004-5C, Invitrogen, CA, USA) as in Test Example 4, ATP production in the cells was evaluated using an ATP determination kit (Invitrogen, A22066).

[4] = tested on: Mouse melanocytes (MeI-Ab cells); assay: Inhibition of melanin production; assay type: cell-based; conditions: Melanocyte, read-out: Melanin production inhibiting effect (%)
[5] = tested on: prostaglandin E2 production in human fibroblasts; assay: Inhibition of prostaglandin E2 (PGE2) production; assay type: cell-based; conditions: Fibroblast, A23187 and arachidonic acid stimulation, relative to coumestrol-untreated group, average of 5, read-out: Prostaglandin E2 production inhibiting effect (%)
Method: The coumestrol's effect of inhibiting prostaglandin E2 production was tested as follows. Human fibroblasts (CAS-C-004-5C, Invitrogen, CA, USA) were cultured for 24 hours in a CO2 incubator. After replacing the medium with a fresh FBS-free medium and culturing for 2 hours, the cells were treated with coumestrol diluted to a final concentration of 0.01, 0.1 or 1 μM in a fresh FBS-free medium. The cells were then cultured for 2 hours at 37° C. in a 5% (v/v) CO2 incubator. Subsequently, after treating with 50 μM Calcium Ionophore A23187 and arachidonic acid for 5 minutes to stimulate prostaglandin E2, the cells were lysed and prostaglandin E2 was quantitated by measuring absorbance at 450 nm using an ELISA reader. The inhibiting effect (%) was calculated relative to the coumestrol-untreated group. Measurement was made 5 times and the result was averaged.

Cyclooxygenase-2 (COX-2) = assay: Inhibition of COX-2 biosynthesis induced by LPS (western blotting); assay type: cell-based; conditions: human fibroblasts, 24 hours
Method: Human fibroblasts (CAS-C-004-5C, Invitrogen, CA, USA) were used to evaluate the coumestrol's effect of inhibiting COX-2 biosynthesis. The cells were seeded onto a 6-well plate at a density of 5×10^4 cells per well and cultured for about 24 hours in a medium containing 10% FBS until ˜80% confluency. The cells were treated with coumestrol diluted to a final concentration of 0.01, 0.1 or 1 μM in a fresh FBS-free medium and then cultured for 24 hours at 37° C. in a 5% (v/v) CO2 incubator. The cells were harvested and the produced COX-2 was quantitated by western blotting.

atopic symptoms = assay: Improvement of atopic dermatitis (questionnaire, 12 weeks of ointment); assay type: in vivo, human; conditions: ointment containing 0.1% coumestrol, twice a day, people with atopic symptoms
Excerpt: They were asked to apply the ointment for 12 weeks, twice a day, at the sites of atopic symptoms. 12 weeks later, the improvement of the atopic symptoms was examined using a questionnaire. Improvement of typical symptoms of atopic dermatitis including “itchiness”, “dryness”, “keratinization”, “dandruff”, “erythema”, “swelling”, “skin fissure” and “ooze and eczema” was examined. The subjects were asked to score the improvement of the symptoms and the result was averaged to evaluate the improvement of atopic dermatitis.

[6] = tested on: transepidermal water loss; assay: Skin moisturization: transepidermal water loss; assay type: in vivo, human; conditions: ointment containing 0.1% coumestrol, 24° C., RH 40%
Excerpt: They were asked to apply the ointment for 12 weeks, twice a day, at the sites of atopic symptoms. 12 weeks later, the improvement of the atopic symptoms was examined using a questionnaire. Improvement of typical symptoms of atopic dermatitis including “itchiness”, “dryness”, “keratinization”, “dandruff”, “erythema”, “swelling”, “skin fissure” and “ooze and eczema” was examined. The subjects were asked to score the improvement of the symptoms and the result was averaged to evaluate the improvement of atopic dermatitis. In order to evaluate the improvement of skin moisturizing ability, transepidermal water loss was measured for the subjects of Test Example 9 under constant-temperature, constant-humidity conditions (24° C., RH 40%) using a […].

O=c1oc2cc(O)ccc2c2oc3cc(O)ccc3c12 [Coumestrol, 3,9-dihydroxy-6H-benzofuro(3,2-c)(1)benzopyran-6-one]
ROS scavenging effect (%) ([1]; 0.01 μM): 18.7% | ROS scavenging effect (%) ([1]; 0.1 μM): 25.6% | ROS scavenging effect (%) ([1]; 1 μM): 55.1% | activity at 0.01 µM (MMP-1; 0.01 μM): 115% | activity at 0.1 µM (MMP-1; 0.1 μM): 102% | activity at 1 µM (MMP-1; 1 μM): 98% | Synthesis of type I pN collagen (%) (type I pN collagen; 0.01 μM): 115% | Synthesis of type I pN collagen (%) (type I pN collagen; 0.1 μM): 126% | Synthesis of type I pN collagen (%) (type I pN collagen; 1 μM): 129% | Concentration of glycation end product [2]: 0.077 µg/mL | Concentration of ATP [3]: 917 nM | inhibition at 0.01 µM [4]: 1.2% | inhibition at 0.1 µM [4]: 24.4% | inhibition at 1 µM [4]: 30.1% | inhibition at 0.01 µM ([5]; 0.01 μM): 12.8% | inhibition at 0.1 µM ([5]; 0.1 μM): 24.8% | inhibition at 1 µM ([5]; 1 μM): 38.2% | COX-2 expression level (% relative to control) (Cyclooxygenase-2 (COX-2); 0.01 μM): 89 % relative to control | COX-2 expression level (% relative to control) (Cyclooxygenase-2 (COX-2); 0.1 μM): 81 % relative to control | COX-2 expression level (% relative to control) (Cyclooxygenase-2 (COX-2); 1 μM): 64 % relative to control | Number of subjects Aggravated (atopic symptoms): 0 | Number of subjects Improved (atopic symptoms): 8 | Number of subjects Not changed (atopic symptoms): 2 | Number of subjects Remarkably improved (atopic symptoms): 5 | Transepidermal water loss (%) ([6]; 1 week later, control 34): 30% | Transepidermal water loss (%) ([6]; 4 weeks later, control 39): 32% | Transepidermal water loss (%) ([6]; 8 weeks later, control 41): 26% | Transepidermal water loss (%) ([6]; 12 weeks later, control 36): 15%

Oc1ccc(O)cc1 [Hydroquinone, hydroquinone, reference compound]
inhibition at 10 µM ([4]; 10 μM (positive control), MeI-Ab cells): 41.1%
